Earlier results, collected in US20240415846A1, “METHOD OF TREATING AMYOTROPHIC LATERAL SCLEROSIS AND DOSING REGIMEN FOR SAME” (Woolsey Pharmaceuticals, Inc., priority 2021, published 2024).

Conditions: 1-hydroxy (M3) metabolite formed in vivo; Shibuya 2001; cited from earlier work

## O=S(=O)(c1cccc2c(O)nccc12)N1CCCNCC1 [M3]
  half-life: about 8 hours
